Legend:
Rattus norvegicus [1] = assay: Cardiovascular activity in deoxycorticosterone acetate treated hypertensive CD rat assessed as change in heart rate at 50 mg, ip after 2 hrs relative to control; format: ADME, organism-based; settings: in vivo
[2] = Toxicity in ip dosed Swiss-Webster mouse after 24 hrs; format: organism-based; settings: in vivo
Rattus norvegicus [3] = assay: Hypotensive activity in deoxycorticosterone acetate treated hypertensive CD rat assessed as change in blood pressure at 50 mg, ip after 24 hrs relative to control; format: functional
Rattus norvegicus [4] = assay: Hypotensive activity in deoxycorticosterone acetate treated hypertensive CD rat assessed as change in blood pressure at 50 mg, ip after 4 hrs relative to control; format: functional
Rattus norvegicus [5] = assay: Hypotensive activity in deoxycorticosterone acetate treated hypertensive CD rat assessed as change in blood pressure at 50 mg, ip after 2 hrs relative to control; format: functional
Rattus norvegicus [6] = assay: Cardiovascular activity in deoxycorticosterone acetate treated hypertensive CD rat assessed as change in heart rate at 50 mg, ip after 24 hrs relative to control; format: ADME, organism-based; settings: in vivo
Rattus norvegicus [7] = assay: Hypotensive activity in deoxycorticosterone acetate treated hypertensive CD rat assessed as change in blood pressure at 50 mg, ip after 1 hr relative to control; format: functional
Rattus norvegicus [8] = assay: Cardiovascular activity in deoxycorticosterone acetate treated hypertensive CD rat assessed as change in heart rate at 50 mg, ip after 1 hr relative to control; format: ADME, organism-based; settings: in vivo
Rattus norvegicus [9] = assay: Cardiovascular activity in deoxycorticosterone acetate treated hypertensive CD rat assessed as change in heart rate at 50 mg, ip after 4 hrs relative to control; format: ADME, organism-based; settings: in vivo
Rattus norvegicus [10] = assay: Cardiovascular activity in deoxycorticosterone acetate treated hypertensive CD rat assessed as change in heart rate at 20 mg, ip after 24 hrs relative to control; format: ADME, organism-based; settings: in vivo
Rattus norvegicus [11] = assay: Cardiovascular activity in deoxycorticosterone acetate treated hypertensive CD rat assessed as change in heart rate at 20 mg, ip after 1 hr relative to control; format: ADME, organism-based; settings: in vivo
Rattus norvegicus [12] = assay: Hypotensive activity in deoxycorticosterone acetate treated hypertensive CD rat assessed as change in blood pressure at 20 mg, ip after 4 hrs relative to control; format: functional
Rattus norvegicus [13] = assay: Hypotensive activity in deoxycorticosterone acetate treated hypertensive CD rat assessed as change in blood pressure at 20 mg, ip after 1 hr relative to control; format: functional
Rattus norvegicus [14] = assay: Hypotensive activity in deoxycorticosterone acetate treated hypertensive CD rat assessed as change in blood pressure at 20 mg, ip after 24 hrs relative to control; format: functional
Rattus norvegicus [15] = assay: Cardiovascular activity in deoxycorticosterone acetate treated hypertensive CD rat assessed as change in heart rate at 20 mg, ip after 2 hrs relative to control; format: ADME, organism-based; settings: in vivo
Rattus norvegicus [16] = assay: Hypotensive activity in deoxycorticosterone acetate treated hypertensive CD rat assessed as change in blood pressure at 20 mg, ip after 2 hrs relative to control; format: functional
Rattus norvegicus [17] = assay: Cardiovascular activity in deoxycorticosterone acetate treated hypertensive CD rat assessed as change in heart rate at 20 mg, ip after 4 hrs relative to control; format: ADME, organism-based; settings: in vivo
Rattus norvegicus [18] = assay: Hypotensive activity in deoxycorticosterone acetate treated hypertensive CD rat assessed as change in blood pressure at 10 mg, ip after 4 hrs relative to control; format: functional
Rattus norvegicus [19] = assay: Hypotensive activity in deoxycorticosterone acetate treated hypertensive CD rat assessed as change in blood pressure at 10 mg, ip after 2 hrs relative to control; format: functional
Rattus norvegicus [20] = assay: Hypotensive activity in deoxycorticosterone acetate treated hypertensive CD rat assessed as change in blood pressure at 10 mg, ip after 24 hrs relative to control; format: functional
Rattus norvegicus [21] = assay: Hypotensive activity in deoxycorticosterone acetate treated hypertensive CD rat assessed as change in blood pressure at 10 mg, ip after 1 hr relative to control; format: functional
Rattus norvegicus [22] = assay: Cardiovascular activity in deoxycorticosterone acetate treated hypertensive CD rat assessed as change in heart rate at 10 mg, ip after 2 hrs relative to control; format: ADME, organism-based; settings: in vivo
Rattus norvegicus [23] = assay: Cardiovascular activity in deoxycorticosterone acetate treated hypertensive CD rat assessed as change in heart rate at 10 mg, ip after 24 hrs relative to control; format: ADME, organism-based; settings: in vivo
Rattus norvegicus [24] = assay: Cardiovascular activity in deoxycorticosterone acetate treated hypertensive CD rat assessed as change in heart rate at 10 mg, ip after 4 hrs relative to control; format: ADME, organism-based; settings: in vivo
Rattus norvegicus [25] = assay: Cardiovascular activity in deoxycorticosterone acetate treated hypertensive CD rat assessed as change in heart rate at 10 mg, ip after 1 hr relative to control; format: ADME, organism-based; settings: in vivo

SMILES	Activity (Rattus norvegicus [1])	LD50 at 24 h [2]	Activity (Rattus norvegicus [3])	Activity (Rattus norvegicus [4])	Activity (Rattus norvegicus [5])	Activity (Rattus norvegicus [6])	Activity (Rattus norvegicus [7])	Activity (Rattus norvegicus [8])	Activity (Rattus norvegicus [9])	Activity (Rattus norvegicus [10])	Activity (Rattus norvegicus [11])	Activity (Rattus norvegicus [12])	Activity (Rattus norvegicus [13])	Activity (Rattus norvegicus [14])	Activity (Rattus norvegicus [15])	Activity (Rattus norvegicus [16])	Activity (Rattus norvegicus [17])	also measured
Br.COc1ccc(CN2CCc3c(c4c(c(OC)c3OC)CCC4)C2)cc1OC	0.4%	200 mg/kg	3.3%	-1%	-2.4%	-9.1%	-8.4%	0.4%	1%	–	–	–	–	–	–	–	–	–
Br.COc1c2c(c3c(c1OC)CN(C)CC3)CCC2	-4.4%	100 mg/kg	-4.6%	-6.3%	-2.9%	-3.8%	-3%	-8.7%	1.6%	1.5%	3.5%	-4.2%	6.3%	-2.9%	9.2%	5.5%	8.5%	–
COc1ccc(C(=O)N2CCc3c4c(c(OC)c(OC)c3C2)CCC4)cc1OC	–	150 mg/kg	–	–	–	–	–	–	–	5.7%	3.8%	-3.1%	-4%	5.6%	8.9%	-1.4%	2.2%	–
Br.COc1ccc(CCN2CCc3c4c(c(OC)c(OC)c3C2)CCC4)cc1OC	17.6%	125 mg/kg	-2.8%	-6.6%	-11.3%	2.4%	-26%	22%	5.4%	–	–	–	–	–	–	–	–	–
Br.CCC(C)CN1CCc2c3c(c(OC)c(OC)c2C1)CCC3 (stereo unspecified)	–	100 mg/kg	–	–	–	–	–	–	–	-5.5%	7.8%	-7%	-13.1%	-1.6%	7.3%	-8.1%	3.4%	Activity (Rattus norvegicus [18]): 0.7%; Activity (Rattus norvegicus [19]): -1.9%; Activity (Rattus norvegicus [20]): -2.6%; Activity (Rattus norvegicus [21]): -12.2%; Activity (Rattus norvegicus [22]): -4.2%; Activity (Rattus norvegicus [23]): -2.4%; Activity (Rattus norvegicus [24]): -4.3%; Activity (Rattus norvegicus [25]): 3.6%
C[C@](N)(Cc1ccc(O)c(O)c1)C(=O)O [METHYLDOPA]	104.1%	–	-16.5%	-47.7%	-50%	-19.3%	-31%	106.2%	31%	–	–	–	–	–	–	–	–	–
COc1ccc(CC(=O)N2CCc3c(c4c(c(OC)c3OC)CCC4)C2)cc1OC	–	500 mg/kg	–	–	–	–	–	–	–	–	–	–	–	–	–	–	–	–
COc1c2c(c3c(c1OC)CCN(C(=O)C(c1ccccc1)c1ccccc1)C3)CCC2	–	200 mg/kg	–	–	–	–	–	–	–	–	–	–	–	–	–	–	–	–
COc1ccc(CC(=O)N2CCc3c4c(c(OC)c(OC)c3C2)CCC4)cc1OC	–	160 mg/kg	–	–	–	–	–	–	–	-6.7%	1.9%	-6.3%	5.4%	-3.1%	1.8%	-3.9%	1.3%	–
Br.COc1ccc(CCN2CCc3c(c4c(c(OC)c3OC)CCC4)C2)cc1OC	–	100 mg/kg	–	–	–	–	–	–	–	–	–	–	–	–	–	–	–	–
